According to PubChem BioAssay (NCI):
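At the GI50, growth is halved. Definition used: TGI = concentration required for complete inhibition of growth.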

Legend:
Assay in all cases: inhibition of tumour cell growth, NCI panel, 384-well format
[1] = system: 786-0 renal
[2] = system: A498 renal
[3] = system: A549 NSCLC
[4] = system: ACHN renal
[5] = system: BT-549 breast
[6] = system: CAKI-1 renal
[7] = system: CCRF-CEM leukemia
[8] = system: COLO 205 colon
[9] = system: DU-145 prostate
[10] = system: EKVX NSCLC
[11] = system: HCC-2998 colon
[12] = system: HCT-15 colon
[13] = system: HL-60(TB) leukemia
[14] = system: HOP-62 NSCLC
[15] = system: HOP-92 NSCLC
[16] = system: HS 578T breast
[17] = system: HT29 colon
[18] = system: IGROV1 ovarian
[19] = system: KM12 colon
[20] = system: M14 melanoma
[21] = system: MALME-3M melanoma
[22] = system: MCF7 breast
[23] = system: MDA-MB-231 breast
[24] = system: MDA-MB-435 melanoma
[25] = system: MDA-MB-468 breast
[26] = system: MOLT-4 leukemia
[27] = system: NCI-H226 lung
[28] = system: NCI-H23 lung
[29] = system: NCI-H322M lung
[30] = system: NCI-H460 NSCLC
[31] = system: NCI-H522 lung
[32] = system: NCI/ADR-RES ovarian
[33] = system: OVCAR-3 ovarian
[34] = system: OVCAR-4 ovarian
[35] = system: OVCAR-5 ovarian
[36] = system: OVCAR-8 ovarian
[37] = system: PC-3 prostate
[38] = system: RPMI-8226 leukemia
[39] = system: RXF 393 renal
[40] = system: SF-268 CNS
[41] = system: SF-295 CNS
[42] = system: SF-539 CNS
[43] = system: SK-MEL-2 melanoma
[44] = system: SK-MEL-28 melanoma
[45] = system: SK-MEL-5 melanoma
[46] = system: SK-OV-3 ovarian
[47] = system: SN12C renal
[48] = system: SNB-19 CNS
[49] = system: SNB-75 CNS
[50] = system: SR leukemia
[51] = system: SW-620 colon
[52] = system: T-47D breast
[53] = system: TK-10 renal
[54] = system: U251 glioblastoma
[55] = system: UACC-257 melanoma
[56] = system: UACC-62 melanoma

`COCC1(CO)C(=O)C2CCN1CC2` (configuration not stated) was tested, and the GI50 [1] was 15.5 µM, the TGI [1] was 28.9 µM and the GI50 [2] was 16.7 µM. The TGI [2] was 30.5 µM, the GI50 [3] was 18.2 µM and the TGI [3] was 32.4 µM. It also gave a GI50 [4] of 20.3 µM, a TGI [4] of 34.6 µM and a GI50 [5] of 11.5 µM. It also gave a TGI [5] of 23.7 µM, a GI50 [6] of 17.1 µM and a TGI [6] of 30.9 µM. The GI50 [7] was 1.76 µM, the TGI [7] was 3.33 µM and the GI50 [8] was 18.1 µM. For the same molecule, the TGI [8] was 32.1 µM, the GI50 [9] was 17.9 µM and the TGI [9] was 32 µM. It also gave a GI50 [10] of 16.9 µM, a TGI [10] of 30.6 µM and a GI50 [11] of 17.2 µM. The TGI [11] was 31 µM, the GI50 [12] was 4.34 µM and the TGI [12] was 13.9 µM. The GI50 [13] was 13 µM, the TGI [13] was 25.9 µM and the GI50 [14] was 1.86 µM. For the same molecule, the TGI [14] was 3.49 µM, the GI50 [15] was 10.9 µM and the TGI [15] was 22.9 µM. It also gave a GI50 [16] of 13.1 µM, a TGI [16] of 25.9 µM and a GI50 [17] of 19 µM. For the same molecule, the TGI [17] was 33.2 µM, the GI50 [18] was 17.2 µM and the TGI [18] was 31.1 µM. It also gave a GI50 [19] of 17.9 µM, a TGI [19] of 32 µM and a GI50 [20] of 17.8 µM. For the same molecule, the TGI [20] was 31.8 µM, the GI50 [21] was 17.5 µM and the TGI [21] was 31.3 µM. The GI50 [22] was 3.68 µM, the TGI [22] was 12.4 µM and the GI50 [23] was 17.7 µM. The TGI [23] was 31.7 µM, the GI50 [24] was 16.9 µM and the TGI [24] was 30.7 µM. For the same molecule, the GI50 [25] was 3.28 µM, the TGI [25] was 7.2 µM and the GI50 [26] was 2.27 µM. It also gave a TGI [26] of 6.55 µM, a GI50 [27] of 21.9 µM and a TGI [27] of 36.4 µM. The GI50 [28] was 11.8 µM, the TGI [28] was 24.2 µM and the GI50 [29] was 19.7 µM. It also gave a TGI [29] of 35.2 µM, a GI50 [30] of 17.4 µM and a TGI [30] of 31.6 µM. The GI50 [31] was 1.83 µM, the TGI [31] was 3.24 µM and the GI50 [32] was 16.2 µM. The TGI [32] was 29.9 µM, the GI50 [33] was 14.6 µM and the TGI [33] was 27.9 µM. The GI50 [34] was 2.6 µM, the TGI [34] was 6.3 µM and the GI50 [35] was 16.5 µM. The TGI [35] was 30.2 µM, the GI50 [36] was 19.8 µM and the TGI [36] was 34.1 µM. It also gave a GI50 [37] of 19.1 µM, a TGI [37] of 33.3 µM and a GI50 [38] of 10.5 µM. The TGI [38] was 22.3 µM, the GI50 [39] was 2 µM and the TGI [39] was 3.43 µM. For the same molecule, the GI50 [40] was 20 µM, the TGI [40] was 34.2 µM and the GI50 [41] was 17.5 µM. For the same molecule, the TGI [41] was 31.6 µM, the GI50 [42] was 17.5 µM and the TGI [42] was 31.3 µM. For the same molecule, the GI50 [43] was 2.62 µM, the TGI [43] was 5.41 µM and the GI50 [44] was 20.6 µM. The TGI [44] was 35 µM, the GI50 [45] was 15.5 µM and the TGI [45] was 29 µM. For the same molecule, the GI50 [46] was 19.3 µM, the TGI [46] was 33.4 µM and the GI50 [47] was 15.3 µM. The TGI [47] was 28.8 µM, the GI50 [48] was 17.5 µM and the TGI [48] was 31.5 µM. The GI50 [49] was 1.79 µM, the TGI [49] was 3.73 µM and the GI50 [50] was 14.6 µM. For the same molecule, the TGI [50] was 27.8 µM, the GI50 [51] was 14.2 µM and the TGI [51] was 27.4 µM. The GI50 [52] was 1.58 µM, the TGI [52] was 2.94 µM and the GI50 [53] was 17 µM. For the same molecule, the TGI [53] was 30.7 µM, the GI50 [54] was 18.7 µM and the TGI [54] was 32.8 µM. It also gave a GI50 [55] of 13.9 µM, a TGI [55] of 27 µM and a GI50 [56] of 18.2 µM. The TGI [56] was 32.2 µM.
